Results as given in patent US12661404B2, “Methods and materials for tissue ablation” (Mayo Foundation for Medical Education and Research, priority 2020, dated 2026).

Tests used:
[1] = test system: human hepatocellular carcinoma (Hep-G2) cells; conditions: Hep-G2, 24 hours incubation, WST-1
Method: HepG2 human liver cancer cell line (ATCC CRL10741; American Type Culture Collection, Manassas, VA, USA) were cultured in 75 cm^2 flasks using growth medium consisting of low glucose Dulbecco's Modified Eagle Medium (DMEM, ThermoFisher) and 10% heat-inactivated bovine serum that was supplemented with 100 IU penicillin and 10 μg/mL streptomycin (Thermo Fisher Scientific). […] The anticancer activity of LATTE on HepG2 was determined using WST-1 reagent (2-(4-Iodophenyl)-3-(4-nitrophenyl)-5-(2,4-disulfophenyl)-2H-tetrazolium sodium) assay as an indication of viability/cytotoxicity treatment. WST-1 viability assay is based on the reduction of tetrazolium salt, WST-1 to an insoluble formazan dye by electron transport across the plasma membrane in viable cells that alter the optical density of the media. […] Cell viability was calculated relative to control wells that received the growth medium alone.
All reported values are the means of three replicate experiments with each study having 8 wells per dose level. Plots of the log concentration versus fractional viability for each drug were generated for each study.

[2] = test system: pancreas ductal adenocarcinoma (Panc-1) cells; conditions: Panc-1, 24 hours incubation, WST-1
Method: (§1) To determine synergy and the concentration of a chemotherapy agent such as doxorubicin to co-administer with LATTE, cell culture experiments were performed.
(§2) HepG2 human liver cancer cell line (ATCC CRL10741; American Type Culture Collection, Manassas, VA, USA) were cultured in 75 cm^2 flasks using growth medium consisting of low glucose Dulbecco's Modified Eagle Medium (DMEM, ThermoFisher) and 10% heat-inactivated bovine serum that was supplemented with 100 IU penicillin and 10 μg/mL streptomycin (Thermo Fisher Scientific). […] The anticancer activity of LATTE on HepG2 was determined using WST-1 reagent (2-(4-Iodophenyl)-3-(4-nitrophenyl)-5-(2,4-disulfophenyl)-2H-tetrazolium sodium) assay as an indication of viability/cytotoxicity treatment. WST-1 viability assay is based on the reduction of tetrazolium salt, WST-1 to an […] formazan dye by electron transport across the plasma membrane in viable cells that alter the optical density of the media. […] At the end of the incubation period, the medium was discarded, and the wells were rinsed three times with DPBS solution followed by addition of 100 μL growth medium and 10 μL of freshly prepared WST-1 reagent into each well and then incubated for 2 hours inside the 5% CO2 incubator at 37° C. After the incubation period, the optical percent density was measured using a microplate reader at a wavelength of 450 nm (SpectraMax iD5, Molecular Devices, San Jose, CA). Cell viability was calculated relative to control wells that received the growth medium alone. Viability rate was calculated as follows: Viability (%)=[…].

[3] = test system: patient derived cholangiocarcinoma, pancreas adenocarcinoma cell lines and HepG2 hepatocellular carcinoma cells; conditions: three cell lines, serially diluted 25-0.048% w/v, 24 or 48 hours
Method: as §1, §2

[4] = test system: Cholangiocarcinoma (SNU-478) cells; conditions: SNU-478, 24 hours incubation, WST-1
Method: as §1, §2

human blood clot = test system: human blood clot
Method: In a separate experiment blood coagulation was induced in uncougulated human. A blood volume of 4 mL citrated blood loaded into a polypropylene tube and mixed with 400 μL of 0.2 M calcium chloride (CaCl2) for 10 seconds. Aliquouts of 100 μL were deposited into multiple wells on a 96 well plate and the remaining blood volume was kept in the tube. Coagulation was initiated by incubating the samples at 37° C. for 10 minutes.

N1S1 liver tumors = test: Intratumoral injection of LATTE in N1S1 rat model of liver cancer; format: in vivo
Method: All procedures were approved by the institutional animal care and use committee and performed according to institutional guidelines. […] N1S1 cells were maintained in suspension in a 75 cm^2 culture flasks at 37° C. in a 5% CO2 humidified chamber. […] To prepare the cells for inoculation, N1S1 cell aliquots were rinsed and suspended in plain IMDM (without antibiotics or serum) to yield 2×10^6 cells in 100 μL of fresh aliquots for each inoculation. The rat liver was surgically exposed through upper midline laparotomy under isoflurane anesthesia followed by subcapsular inoculation of N1S1 cells into the left liver lobe. Gentle compression with gauze for hemostasis was used to prevent cell reflux. The abdominal incision was closed using interrupted Vicryl sutures for abdominal muscle and subcuticular suture for the skin, followed by the application of Vetbond tissue adhesive (3M, St. Paul, MN) followed by recovery from anesthesia. Intratumoral injection of the ionic liquid mixture was performed in three groups of rats bearing 0.5 cm^3 N1S1 tumor lesions measured with ultrasound. […] All solutions contained 0.25 mg/mL indocyanine green (ICG, Sigma-Aldrich, St. Louis, MO) solubilized in normal saline. Following intratumoral injections, treated rats were allowed to survive for 2 weeks after treatment, and tumor volume was documented using ultrasound. N1S1 tumor progression and treatment response was assessed using percutaneous ultrasonography. Selected focal zone depth, gain, and tissue harmonic settings were optimized during the acquisition of the initial imaging at baseline, and the same parameters were applied during acquisition after intratumoral injection of LATTE mixture. Serial ultrasound examinations were performed on rat livers following N1S1 inoculation to confirm tumor formation and assess tumor volume. Rats were anesthetized using a gas mixture of 2-3% isoflurane in 100% oxygen via a nose cone. Rats were secured in a supine position on an electronically controlled warming platform to maintain the temperature at 37° C. during the imaging procedure. The abdominal area was shaved and prepped with depilatory cream (Nair, Church& Dwight Co. INC). Initially, abdominal sonography was performed to delineate tumor mass boundaries in grayscale (B-mode) using ACUSON 52000 system (Siemens Inc., Germany) and a multi-frequency linear transducer (9L4, 9.0 MHz). The transducer was positioned to obtain 2D scans via the subcostal window to document liver tumors and measure lesion diameter. […] Tumor volumes were calculated as following: V=(4/3)×π×(1/2) SI×(1/2)LM×1/2 AP. Color Doppler images were also acquired to detect the distribution of the tumor blood flow weekly.
To visualize normal liver parenchyma on CT imaging, rats received a bolus injection of 400 μL of the alkaline earth metal-based nanoparticle suspension, Exitron nano 12000 (Miltenyi Biotec, Auburn, CA) two hours prior to micro-CT scanning. Rats were anesthetized using inhalation of 2-3% isoflurane in 100% 02 at a constant flow rate of 2 L/minute and placed on a cassette equipped with a warming system and continuous gas exchange and integrated real-time motion detection camera. Fixed rat tissues were placed and immobilized using styrofoam beads inside a humidified plastic chamber. […] The 3D image stacks were reconstructed using NRecon software and InstaRecon CBR Server (version: 1.7.4.6, Bruker, Kontich, Belgium) following adjustment of random movements, beam-hardening correction, and ring artifact reduction and smoothing. 3D volume rendering was visualized using CTVox software (version: 3.3. 0 r1383, Bruker, Kontich, Belgium). The stacks were virtually rotated and axially oriented to yield transverse projections of select volume of interest (VOI) using Data Viewer software (Bruker, Kontich, Belgium).

choline-geranate [LATTE]
effective dose (EC50), fractional cell viability [1]: 0.19% | effective dose (EC50), fractional cell viability [2]: 0.3% | effective concentration that causes 50% cell death (EC50) [3]: 0.18-0.3% | effective dose (EC50), fractional cell viability [4]: 0.2% | clot dissolution, coagulated blood in multi-wells (human blood clot; overlayed with LATTE): clot was dissolved | lysis of blood clot formed in the tube (human blood clot; petri dish, incubation with LATTE): complete lysis | tumor volume by micro-CT vs saline (N1S1 liver tumors; 2 weeks post-treatment): substantially smaller tumor volumes | tumor size on gray-scale US, smaller than saline injected group (N1S1 liver tumors; 25%-LATTE intratumoral, two weeks): 5 fold | CD68-expressing macrophages, increase (N1S1 liver tumors; tumor sections, two weeks): 16 fold | number of apoptotic (cleaved Caspase-3) cells, higher than saline group (N1S1 liver tumors; tumor sections, two weeks): 24 fold | treatment response on micro-CT review by radiologist, size criteria (N1S1 liver tumors; two weeks): complete treatment response | tumor histology (H&E) (N1S1 liver tumors; two weeks): complete tumor necrosis | morphometric analysis of tumor size and cell count (N1S1 liver tumors; two weeks, vs saline): significant reduction in tumor size and cell count | proliferating (PCNA) cells (N1S1 liver tumors; two weeks, vs saline): markedly reduced number of proliferating cells | CD3+ T-lymphocyte infiltration (N1S1 liver tumors; within treated tumor margin, two weeks): enhanced CD3+T-lymphocyte infiltration
